Assay results reported in patent publication US12582607B2, “Implantable medical devices for extended release of therapeutic agents” (Nano Precision Medical, Inc., priority 2014, dated 2026).
Each block holds one compound with its values, some of them ahead of it.

Tests used:
[1] = In vitro release of stabilizers from implantable devices and disassembly of the devices (Contemplated Examples); assay type: physicochemical; settings: for release rate profile of stabilizer out of device through nanoporous membrane: in vitro testing, reverse phase HPLC; for duration for which stabilizer level (pH or concentration) is maintained in device: in vitro; for duration for which stabilizer level (pH or concentration) is maintained in device / pH maintained inside device: 37° C.; for pH maintained inside device: disassembly of devices at 2 months, 26 mM bis-tris buffer, 154 mM NaCl
Text: In the examples below the devices that are used include titanium capsules of approximately 25 mm length and 2.25 mm diameter. A titanium substrate with a titanium oxide nanoporous membrane is welded to one end of the device. […] A silicone septum is located at the other end of the device. Extended-release configurations of stabilizers, prepared as described further below, are incorporated into the reservoirs before final attachment of the membrane and septum on the device. A formulation solvent is filled into the device as per methods in PCT/US2021/019559. Briefly, the formulation solvent is loaded into a filler apparatus with a hollow needle to pierce the septum. A vacuum is applied to the membrane of the device to reduce the pressure inside the reservoir, and the formulation is injected through the septum into the reservoir through the needle. The durability of the presence of stabilizers inside devices of the disclosure may be tested by measuring release of the stabilizers from the devices in vitro. In vitro testing is performed by submerging the devices in 3 ml of a 26 mM bis-tris buffer, 154 mM NaCl on a shaker plate at 37° C. and measuring the amounts of stabilizer released at regular intervals by reverse phase HPLC.

[2] = Forced degradation study of exenatide with and without PLGA in titanium reservoirs with nanotube membrane; purity of released exenatide by HPLC; assay type: physicochemical; settings: 37 C, devices in PBS pH 7.4 with full access to air; for Exenatide purity over time (% purity), 7 days: day 7; for Exenatide purity over time (% purity), 14 days: day 14; for Exenatide purity over time (% purity), 28 days: day 28; for Exenatide purity over time (% purity), 35 days: day 35; for Exenatide purity over time (% purity), 42 days: day 42; for Exenatide purity over time (% purity), 56 days: day 56
Description: To avoid confounding factors, no other stabilizers were used in the study.
The devices were incubated in phosphate buffered saline (pH 7.4) under full access to air (oxygen).

[3] = cited from earlier work

stabilizer concentration maintained in device ([1]; disassembly of devices at 3 months): at least 0.05%
duration for which stabilizer level (pH or concentration) is maintained in device [1]: at least 3 months
Compound: CCCOC(=O)c1cc(O)c(O)c(O)c1 [propyl gallate]
release rate profile of stabilizer out of device through nanoporous membrane [1]: declining with approximately the square root of time

Compound: O=C(O)c1ccccc1 [benzoic acid]
pH maintained inside device [1]: below 6
release rate profile of stabilizer out of device through nanoporous membrane [1]: declining with approximately the square root of time
duration for which stabilizer level (pH or concentration) is maintained in device [1]: at least 2 months

stabilizer concentration maintained in device ([1]; disassembly of devices at 4 months): at least 0.05%
release rate profile of stabilizer out of device through nanoporous membrane [1]: approximately constant rate
duration for which stabilizer level (pH or concentration) is maintained in device [1]: at least 4 months
Compound: Oc1ccc(O)cc1 [hydroquinone, Hydroquinone]

Compound: Exenatide only: 20% (w/v) exenatide solution in Water For Injection with 0.04% NaN3, no PLGA, non-irradiated
Exenatide purity over time (% purity), 7 days [2]: 99 % purity
Exenatide purity over time (% purity), 14 days [2]: 89 % purity
Exenatide purity over time (% purity), 28 days [2]: 87 % purity
Exenatide purity over time (% purity), 35 days [2]: 82 % purity
Exenatide purity over time (% purity), 42 days [2]: 72 % purity
Exenatide purity over time (% purity), 56 days [2]: 62 % purity

Compound: Exenatide only (Irradiated): E-beam irradiated (25k Gray) exenatide solution 200 mg/ml, no PLGA
Exenatide purity over time (% purity), 7 days [2]: 96 % purity
Exenatide purity over time (% purity), 14 days [2]: 91 % purity
Exenatide purity over time (% purity), 28 days [2]: 82 % purity
Exenatide purity over time (% purity), 35 days [2]: 75 % purity
Exenatide purity over time (% purity), 42 days [2]: 66 % purity
Exenatide purity over time (% purity), 56 days [2]: 51 % purity

Compound: Cc1cc(C(C)(C)C)c(O)c(C(C)(C)C)c1 [butylated hydroxytoluene]
reported solubility in water [3]: about 1 ppm

pH maintained inside device [1]: above 8
duration for which stabilizer level (pH or concentration) is maintained in device [1]: at least 2 months
Compound: [H]/N=C(\N/C(=N/[H])NCCCCCCNC(=N)NC(=N)Nc1ccc(Cl)cc1)Nc1ccc(Cl)cc1 [chlorhexidine, Chlorhexidine]
release rate profile of stabilizer out of device through nanoporous membrane [1]: declining with approximately the square root of time
